How the values were obtained:
Test in all cases: biochemical
Design in all cases: Upstate KinaseProfiler in vitro kinase activity assay, per cent of DMSO control
Details in all cases: read-out: Activity (% of Control)
ALK4(h) = target: T1, ALK4(h) (Homo sapiens, UniProt P36896)
T1 construct: gene ACVR1B
Experimental: (§1) Kinase profile and kinase assay. A Kinase profile against 100 kinases listed for resveratrol at 20 μM was generated utilizing Upstate's KinaseProfiler™ service. Assay protocols for each kinase are available from Upstate (Lake Placid, NY). In vitro kinase assay was performed as described previously. Briefly, HEK293 cells were transfected with HA-S6K1 wt, HA-S6K1 K100R, or vector as indicated. Cells were treated with 1 μg/ml insulin for 10 minutes prior to harvesting in PBS + 0.5% NP-40 + protease and phosphatase inhibitors. 125 μg of lysate per sample was immunoprecipitated using 0.5 μg/sample of anti-HA High-Affinity (Roche, Basel Switzerland). Beads from immunoprecipitations were washed three times in lysis buffer and once in kinase buffer, and kinase assays were performed with recombinant GST-S6 as substrate (1 μg per assay). In the indicated lanes varying doses of resveratrol or DMSO control were added to the reaction prior to addition of the GST-S6 substrate. All samples were subjected to SDS-PAGE, and 32P incorporation was quantified by using a Bio-Rad (Hercules, CA) Phosphor-Imager and subsequent analysis with ImageJ (NIH).  Figure 4. Resveratrol inhibits S6K1 in vitro. (A) Structural similarity between resveratrol and quercetin, a known kinase inhibitor. (B) Kinase inhibition profile for resveratrol at 20 μM obtained using KinaseProfiler™ (Upstate). Dashed line represents 100% activity as compared to control. Black filled-in bar on the graph indicates S6K1. Complete data set is provided in Supplementary Table 1. Error bars represent s.d.m. (C) Phosphorylation of recombinant GST-tagged S6 by immunoprecipitated HA-S6K1 under increasing concentrations of resveratrol (Res). Autoradiograph depicts S6K1 phosphorylation of GST-S6. (D) Average of three separate kinase assay experiments as performed in (C). Densitometry was performed using NIH ImageJ. Error bars represent s.e.m. […] Therefore, we hypothesized that the effect of resveratrol on autophagy could be related to inhibition of one or more upstream kinases. To test this, we performed an in vitro kinase screen and determined an inhibition profile for resveratrol. […] With the exception of S6K1, these kinases play primary roles in the hematopoietic system, and were thus viewed as unlikely to have been responsible for the effect we were studying. […] On the other hand, S6K1 is known to play a requisite role in the regulation of autophagy in Drosophila, making it a promising candidate for the in vivo target of resveratrol that is responsible for inhibition of autophagy.

Abl(h) = target: T2, Abl(h) (Homo sapiens, UniProt P00519)
T2 construct: gene ABL1
Experimental: as §1

CHK2(h) = target: T3, CHK2(h) (Homo sapiens, UniProt O96017)
T3 construct: gene CHEK2
Experimental: as §1

EGFR(h) = EGFR(h) (Homo sapiens, UniProt P00533)
Experimental: as §1

Fgr(h) = Fgr(h) (Homo sapiens, UniProt P09769)
Fgr(h), sequence (P09769 whole entry): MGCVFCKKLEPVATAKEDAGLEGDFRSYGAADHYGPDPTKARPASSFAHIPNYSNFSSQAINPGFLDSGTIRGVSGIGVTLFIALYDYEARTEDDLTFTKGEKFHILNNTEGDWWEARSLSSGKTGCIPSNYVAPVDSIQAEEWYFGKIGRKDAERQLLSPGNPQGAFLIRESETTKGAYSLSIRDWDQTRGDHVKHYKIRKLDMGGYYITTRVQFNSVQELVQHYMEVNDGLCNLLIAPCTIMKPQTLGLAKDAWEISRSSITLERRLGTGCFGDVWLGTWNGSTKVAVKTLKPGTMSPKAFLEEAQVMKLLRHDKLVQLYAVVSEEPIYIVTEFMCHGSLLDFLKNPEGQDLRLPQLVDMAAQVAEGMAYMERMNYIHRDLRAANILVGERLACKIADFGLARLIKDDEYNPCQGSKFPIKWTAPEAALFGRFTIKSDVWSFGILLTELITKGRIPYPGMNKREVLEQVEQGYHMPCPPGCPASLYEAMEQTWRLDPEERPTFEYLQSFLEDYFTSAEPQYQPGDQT
Experimental: as §1

Flt1(h) = Flt1(h) (Homo sapiens, UniProt P17948)
Experimental: as §1

LIMK1(h) = LIMK1(h) (Homo sapiens, UniProt P53667)
Experimental: as §1

MEK1(h) = target: T4, MEK1(h) (Homo sapiens, UniProt Q02750)
T4 construct: gene MAP2K1
Experimental: as §1

MSK1(h) = target: T5, MSK1(h) (Homo sapiens, UniProt O75582)
T5 construct: gene RPS6KA5
T5 sequence (O75582 whole entry): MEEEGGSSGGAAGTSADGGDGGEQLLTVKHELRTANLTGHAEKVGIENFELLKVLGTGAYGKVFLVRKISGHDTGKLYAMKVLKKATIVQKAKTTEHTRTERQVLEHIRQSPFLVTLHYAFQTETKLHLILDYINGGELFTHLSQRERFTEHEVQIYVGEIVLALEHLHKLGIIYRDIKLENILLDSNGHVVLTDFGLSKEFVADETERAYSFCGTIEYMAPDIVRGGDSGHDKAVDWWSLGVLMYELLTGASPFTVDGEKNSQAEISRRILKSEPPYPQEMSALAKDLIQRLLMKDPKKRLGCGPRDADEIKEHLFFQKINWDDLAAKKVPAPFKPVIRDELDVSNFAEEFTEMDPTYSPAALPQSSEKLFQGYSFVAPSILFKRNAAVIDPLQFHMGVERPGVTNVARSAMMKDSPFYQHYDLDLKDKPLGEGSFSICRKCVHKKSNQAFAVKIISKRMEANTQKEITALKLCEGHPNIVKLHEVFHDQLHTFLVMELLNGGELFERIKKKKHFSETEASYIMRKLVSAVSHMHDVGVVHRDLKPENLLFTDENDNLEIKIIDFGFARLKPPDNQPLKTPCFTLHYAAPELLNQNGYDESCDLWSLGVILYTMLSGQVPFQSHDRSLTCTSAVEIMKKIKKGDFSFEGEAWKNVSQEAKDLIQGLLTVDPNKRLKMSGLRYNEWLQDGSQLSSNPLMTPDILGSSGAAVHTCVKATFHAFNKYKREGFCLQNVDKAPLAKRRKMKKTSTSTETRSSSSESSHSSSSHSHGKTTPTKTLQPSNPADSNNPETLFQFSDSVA
Experimental: as §1

NEK6(h) = NEK6(h) (Homo sapiens, UniProt Q9HC98)
NEK6(h), sequence (Q9HC98 whole entry): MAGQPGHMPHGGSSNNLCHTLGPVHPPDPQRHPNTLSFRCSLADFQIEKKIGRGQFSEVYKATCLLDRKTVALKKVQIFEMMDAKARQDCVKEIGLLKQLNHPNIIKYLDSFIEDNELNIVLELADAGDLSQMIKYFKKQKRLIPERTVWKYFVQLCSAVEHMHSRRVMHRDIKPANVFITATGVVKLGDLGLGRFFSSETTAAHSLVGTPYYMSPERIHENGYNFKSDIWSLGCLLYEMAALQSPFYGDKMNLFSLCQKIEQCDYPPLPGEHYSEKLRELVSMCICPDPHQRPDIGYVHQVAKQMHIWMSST
Experimental: as §1

PKCα(h) = target: T6, PKCα(h) (Homo sapiens, UniProt P17252)
T6 construct: gene PRKCA
Experimental: as §1

PKCγ(h) = target: T7, PKCγ(h) (Homo sapiens, UniProt P05129)
T7 construct: gene PRKCG
Experimental: as §1

PKCδ(h) = target: T8, PKCδ(h) (Homo sapiens, UniProt Q05655)
T8 construct: gene PRKCD
Experimental: as §1

SAPK2a(T106M)(h) = target: T9, SAPK2a(T106M)(h) (Homo sapiens, UniProt Q16539, T106M)
T9 construct: gene MAPK14
T9 sequence (Q16539 whole entry T106M): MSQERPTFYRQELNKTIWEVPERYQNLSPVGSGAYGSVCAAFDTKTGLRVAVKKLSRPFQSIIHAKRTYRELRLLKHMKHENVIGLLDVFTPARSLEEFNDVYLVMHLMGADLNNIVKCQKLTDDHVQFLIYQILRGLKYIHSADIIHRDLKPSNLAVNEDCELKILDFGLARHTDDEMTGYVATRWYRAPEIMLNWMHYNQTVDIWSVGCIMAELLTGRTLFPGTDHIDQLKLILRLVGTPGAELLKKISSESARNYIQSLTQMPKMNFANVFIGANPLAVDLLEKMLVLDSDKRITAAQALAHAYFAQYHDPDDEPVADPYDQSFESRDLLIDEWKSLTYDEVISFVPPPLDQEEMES
Experimental: as §1

SAPK4(h) = target: T10, SAPK4(h) (Homo sapiens, UniProt O15264)
T10 construct: gene MAPK13
T10 sequence (O15264 whole entry): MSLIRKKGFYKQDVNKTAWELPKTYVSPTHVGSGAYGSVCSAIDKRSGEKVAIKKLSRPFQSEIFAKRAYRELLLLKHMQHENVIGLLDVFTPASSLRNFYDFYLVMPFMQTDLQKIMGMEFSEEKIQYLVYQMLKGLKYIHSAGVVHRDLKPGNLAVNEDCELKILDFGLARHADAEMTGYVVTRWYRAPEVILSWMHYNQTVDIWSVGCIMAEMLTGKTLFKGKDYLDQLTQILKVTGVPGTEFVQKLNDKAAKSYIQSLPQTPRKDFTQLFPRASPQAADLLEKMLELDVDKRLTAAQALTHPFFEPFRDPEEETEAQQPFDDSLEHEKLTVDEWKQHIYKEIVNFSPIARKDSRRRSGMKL
Experimental: as §1

Snk(h) = target: T11, Snk(h) (Homo sapiens, UniProt Q9NYY3)
T11 construct: gene PLK2
Experimental: as §1

TBK1(h) = TBK1(h) (Homo sapiens, UniProt Q9UHD2)
Experimental: as §1

cSRC(h) = target: T12, cSRC(h) (Homo sapiens, UniProt P12931)
T12 construct: gene SRC
T12 sequence (P12931 whole entry): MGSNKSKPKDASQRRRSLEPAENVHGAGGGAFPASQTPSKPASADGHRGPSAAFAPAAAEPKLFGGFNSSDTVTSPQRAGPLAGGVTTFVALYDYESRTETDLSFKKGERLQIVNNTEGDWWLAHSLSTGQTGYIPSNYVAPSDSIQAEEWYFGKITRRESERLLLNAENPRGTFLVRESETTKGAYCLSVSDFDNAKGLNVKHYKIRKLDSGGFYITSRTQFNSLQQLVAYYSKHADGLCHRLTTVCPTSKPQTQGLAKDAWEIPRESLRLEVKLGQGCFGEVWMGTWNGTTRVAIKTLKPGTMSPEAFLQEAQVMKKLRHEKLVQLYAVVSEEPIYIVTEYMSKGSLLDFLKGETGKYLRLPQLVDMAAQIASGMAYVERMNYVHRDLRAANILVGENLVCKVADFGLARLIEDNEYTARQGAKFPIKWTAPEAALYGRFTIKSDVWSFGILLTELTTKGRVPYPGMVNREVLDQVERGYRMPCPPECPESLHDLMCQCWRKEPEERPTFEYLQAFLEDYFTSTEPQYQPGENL
Experimental: as §1

T1 sequence (P36896 whole entry): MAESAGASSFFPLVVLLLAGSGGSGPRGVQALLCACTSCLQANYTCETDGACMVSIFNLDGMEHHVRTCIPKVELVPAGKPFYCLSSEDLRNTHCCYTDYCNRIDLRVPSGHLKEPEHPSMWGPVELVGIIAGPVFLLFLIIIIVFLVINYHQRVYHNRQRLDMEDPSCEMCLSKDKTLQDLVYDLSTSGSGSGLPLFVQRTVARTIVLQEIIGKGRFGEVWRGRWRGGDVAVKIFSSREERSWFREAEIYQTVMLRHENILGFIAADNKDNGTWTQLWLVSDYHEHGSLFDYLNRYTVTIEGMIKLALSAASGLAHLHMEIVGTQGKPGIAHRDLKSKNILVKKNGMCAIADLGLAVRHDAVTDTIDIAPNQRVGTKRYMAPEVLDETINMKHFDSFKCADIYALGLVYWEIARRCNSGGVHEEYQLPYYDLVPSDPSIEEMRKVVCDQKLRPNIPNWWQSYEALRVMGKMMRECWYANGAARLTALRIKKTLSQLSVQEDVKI

Q: For Oc1ccc(/C=C/c2cc(O)cc(O)c2)cc1 [Res, resveratrol], which remaining activity at 20 µM (ALK4(h)) is on record?
A: Its remaining activity at 20 µM is 110 ± 3%.

Q: And the remaining activity at 20 µM (Abl(h))?
A: The remaining activity at 20 µM was 105 ± 7%.

Q: And the remaining activity at 20 µM (CHK2(h))?
A: Its remaining activity at 20 µM is 59 ± 6%.

Q: And the remaining activity at 20 µM (EGFR(h))?
A: Its remaining activity at 20 µM is 90 ± 5%.

Q: What about the remaining activity at 20 µM (Fgr(h)) of the same molecule?
A: The remaining activity at 20 µM was 78 ± 5%.

Q: And the remaining activity at 20 µM (Flt1(h))?
A: Its remaining activity at 20 µM is 52 ± 1%.

Q: And the remaining activity at 20 µM (LIMK1(h))?
A: The remaining activity at 20 µM was 84 ± 4%.

Q: And the remaining activity at 20 µM (MEK1(h))?
A: The remaining activity at 20 µM was 110 ± 5%.

Q: What about the remaining activity at 20 µM (MSK1(h)) of the same molecule?
A: The remaining activity at 20 µM was 58 ± 1%.

Q: What about the remaining activity at 20 µM (NEK6(h)) of the same molecule?
A: Its remaining activity at 20 µM is 140 ± 16%.

Q: What about the remaining activity at 20 µM (PKCα(h)) of the same molecule?
A: Its remaining activity at 20 µM is 114 ± 9%.

Q: And the remaining activity at 20 µM (PKCγ(h))?
A: Its remaining activity at 20 µM is 80 ± 8%.

Q: What about the remaining activity at 20 µM (PKCδ(h)) of the same molecule?
A: The remaining activity at 20 µM was 92 ± 1%.

Q: And the remaining activity at 20 µM (SAPK2a(T106M)(h))?
A: The remaining activity at 20 µM was 102 ± 2%.

Q: What about the remaining activity at 20 µM (SAPK4(h)) of the same molecule?
A: The remaining activity at 20 µM was 92 ± 4%.

Q: What about the remaining activity at 20 µM (Snk(h)) of the same molecule?
A: Its remaining activity at 20 µM is 81 ± 3%.

Q: What about the remaining activity at 20 µM (TBK1(h)) of the same molecule?
A: Its remaining activity at 20 µM is 62 ± 4%.

Q: What about the remaining activity at 20 µM (cSRC(h)) of the same molecule?
A: The remaining activity at 20 µM was 61 ± 1%.

Reference: paper PMC2806030, “Inhibition of mammalian S6 kinase by resveratrol suppresses autophagy” (Aging (Albany NY), 2009)
